Data set [1] deals with T1, Brd2(1) (Homo sapiens, UniProt P25440).
T1 construct: Plasmids of the eight single BET bromodomain constructs Brd2(1), Brd2(2), Brd3(1), Brd3(2); His6 (N); made in house; host or cells: E. coli BL21(DE3)
As to the kind of experiment: DSF thermal shift. Format: binding. Particulars: wild type.

For data set [2], the target named is T2, Brd2(1)*(Trp097His) (Homo sapiens, UniProt P25440, W97H).
T2 construct: Plasmids of the eight single BET bromodomain constructs Brd2(1), Brd2(2), Brd3(1), Brd3(2); His6 (N); made in house; host or cells: E. coli BL21(DE3)
T2 sequence (P25440 74-180 W97H limits assumed): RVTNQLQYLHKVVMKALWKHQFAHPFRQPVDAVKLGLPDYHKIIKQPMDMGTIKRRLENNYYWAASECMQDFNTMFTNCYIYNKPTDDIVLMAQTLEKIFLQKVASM
In words: DSF thermal shift. It counts as binding. Particulars: mutant.

The target in data set [3] is T3, Brd2(1)*(Trp097Phe) (Homo sapiens, UniProt P25440, W97F).
T3 construct: Plasmids of the eight single BET bromodomain constructs Brd2(1), Brd2(2), Brd3(1), Brd3(2); His6 (N); made in house; host or cells: E. coli BL21(DE3)
T3 sequence (P25440 74-180 W97F limits assumed): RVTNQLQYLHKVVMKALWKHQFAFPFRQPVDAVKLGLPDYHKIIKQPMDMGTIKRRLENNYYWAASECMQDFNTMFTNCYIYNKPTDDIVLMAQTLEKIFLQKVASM
In words: DSF thermal shift. It counts as binding. As to conditions: mutant.

In data set [4] the target is T4, Brd2(2) (Homo sapiens, UniProt P25440).
T4 construct: Plasmids of the eight single BET bromodomain constructs Brd2(1), Brd2(2), Brd3(1), Brd3(2); His6 (N); made in house; host or cells: E. coli BL21(DE3)
T4 sequence (P25440 344-453 limits assumed): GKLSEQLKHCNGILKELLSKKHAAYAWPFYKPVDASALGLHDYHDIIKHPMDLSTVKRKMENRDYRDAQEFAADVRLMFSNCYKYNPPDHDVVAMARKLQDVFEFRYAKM
As to the kind of experiment: DSF thermal shift. Format: binding. Particulars: wild type.

Data set [5] has as its target T5, Brd2(2)*(Trp370His) (Homo sapiens, UniProt P25440, W370H).
T5 construct: Plasmids of the eight single BET bromodomain constructs Brd2(1), Brd2(2), Brd3(1), Brd3(2); His6 (N); made in house; host or cells: E. coli BL21(DE3)
As to the kind of experiment: DSF thermal shift. It counts as binding. As to conditions: mutant.

Data set [6] deals with T6, Brd2(2)*(Trp370Phe) (Homo sapiens, UniProt P25440, W370F).
T6 construct: Plasmids of the eight single BET bromodomain constructs Brd2(1), Brd2(2), Brd3(1), Brd3(2); His6 (N); made in house; host or cells: E. coli BL21(DE3)
T6 sequence (P25440 344-453 W370F limits assumed): as the sequence (P25440 344-453 limits assumed) above, with W27F counted along it
As to the kind of experiment: DSF thermal shift. It counts as binding. As to conditions: mutant.

For data set [7], the target named is T4, Brd2(2). In words: ITC reverse titration of protein into compound. It counts as binding. As to conditions: ITC 25° C. Here is the method: (§1) ITC experiments were carried out on a ITC200 instrument from MicroCal™ Experiments were conducted at 3 different temperatures 15° C., 25° C. and 30° C., while stirring at 1000 rpm. Buffers of proteins, peptide and compounds were matched to 20 mM HEPES pH 7.5 at 25° C. and 100 mM NaCl. Frozen protein was buffer exchanged as described for the DSF experiments. Each titration comprised 1 initial injection of 0.4 μl lasting 0.8 s, followed by 19 injections of 2 μl lasting 4 s each at 2 min intervals. The initial injection was discarded during data analysis. Standard and reverse titrations were conducted depending on the binding partners.
(§2) Reverse titrations were conducted to test the binding of the known ligands and the novel chemical probes to the wild types and the mutants. Experiments were carried out either at 25° C. or 30° C. […] In cases where the compound was solubilized in dimethyl sulfoxide, DMSO concentration was adjusted to 1% both in the syringe and in the cell.
(§3) All the data was fitted to a single binding site model using the Microcal LLC ITC200 Origin software provided by the manufacturer to yield enthalpies of binding (ΔH) and binding constants (Kas). Further thermodynamic parameters were calculated from these values (changes in entropy ΔS, changes in free energy AG and dissociation constants (Kds)).

Data set [8] concerns the target T6, Brd2(2)*(Trp370Phe). As to the kind of experiment: ITC reverse titration of protein into compound. It counts as binding. Here is the method:
For this reason, these molecules were not selected for further experimentation. […] Results can be seen in FIG. 7.
as §1
Reverse titrations were conducted to test the binding of the known ligands and the novel chemical probes to the wild types and the mutants. Experiments were carried out either at 25° C. or 30° C. […]
as §3

In data set [9] the target is T7, Brd2(1)*(Met165-Leu) (Homo sapiens, UniProt P25440, M165L).
T7 construct: Plasmids of the eight single BET bromodomain constructs Brd2(1), Brd2(2), Brd3(1), Brd3(2); His6 (N); made in house; host or cells: E. coli BL21(DE3)
T7 sequence (P25440 74-180 M165L limits assumed): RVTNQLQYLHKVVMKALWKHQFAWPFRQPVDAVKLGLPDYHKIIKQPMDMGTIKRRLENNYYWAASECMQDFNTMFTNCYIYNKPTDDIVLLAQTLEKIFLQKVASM
As to the kind of experiment: DSF thermal shift. Format: binding. Particulars: mutant. In outline: (§4)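 Proteins buffer-exchanged into 20 mM HEPES pH 7.5, 100 mM NaCl; SYPRO Orange reporter. Protein 2 or 6 µM with compound 10 or 30 µM (histone peptide 100 or 300 µM) on two instruments, ramped from 37 or 25 °C to 95 °C, triplicates. Tm from first-derivative maximum of sigmoidal fits.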

The target in data set [10] is T8, Brd2(2)*(Met438-Ala) (Homo sapiens, UniProt P25440, M438A).
T8 construct: Plasmids of the eight single BET bromodomain constructs Brd2(1), Brd2(2), Brd3(1), Brd3(2); His6 (N); made in house; host or cells: E. coli BL21(DE3)
T8 sequence (P25440 344-453 M438A limits assumed): as the sequence (P25440 344-453 limits assumed) above, with M95A counted along it
In words: DSF thermal shift. It counts as binding. Particulars: mutant. In outline:
as §4

For data set [11], the target named is T9, Brd2(2)*(Met438-Leu) (Homo sapiens, UniProt P25440, M438L).
T9 construct: Plasmids of the eight single BET bromodomain constructs Brd2(1), Brd2(2), Brd3(1), Brd3(2); His6 (N); made in house; host or cells: E. coli BL21(DE3)
T9 sequence (P25440 344-453 M438L limits assumed): as the sequence (P25440 344-453 limits assumed) above, with M95L counted along it
In words: DSF thermal shift. Particulars: mutant. Format: binding. The method in brief: as §4

For data set [12], the target named is T1, Brd2(1). As to the kind of experiment: ITC reverse titration of protein into compound. Format: binding. Particulars: ITC 25° C.; read-out: Kd wild type Brd2(1). Here is the method:
as §1, §2, §3

Data set [13] concerns the target T8, Brd2(2)*(Met438-Ala). As to the kind of experiment: ITC reverse titration of protein into compound. Format: binding. Here is the method: as §1
Reverse titrations were conducted to test the binding of the known ligands and the novel chemical probes to the wild types and the mutants. […]. In cases where the compound was solubilized in dimethyl sulfoxide, DMSO concentration was adjusted to 1% both in the syringe and in the cell.
as §3

For data set [14], the system named is Brd2 methionine to alanine mutants. In words: DSF thermal shift, pooled statement. It counts as binding, human. As to conditions: span over both mutants. Here is the method:
(§5) DSF assays were performed on a LightCycler®480 from Roche or a Mx3005P Real Time PCR machine from Stratagene. Prior to DSF assays, frozen proteins were buffer exchanged using Vivaspin®6 concentrators with a 10 kDa cutoff on a Centrifuge 5430 from Eppendorf at a speed of 6000×g to remove glycerol and to buffer the proteins in 20 mM HEPES pH 7.5 at 25° C. and 100 mM NaCl. SYPRO®Orange from Invitrogen Molecular Probes® was used as a reporter dye to monitor the denaturing process of the proteins. Samples were assayed on a 96-well plate with final protein concentrations of 2 μM for the LightCycler®480 and 6 μM for Mx3005P. […] The temperature was raised with a step of 0.6° C. per minute from 37° C. to 95° C. with the LightCycler®480 collecting 39 measurements per ° C., and 1° C. per minute from 25° C. to 95° C. with Mx3005P, collecting fluorescence readings at the end of each interval. […]
(§6) Collected data was analysed by IGOR Pro 6, a scientific software tool from Wave Metrics, Inc. Analysis was done following the recommendations of Niesen et al.. Fluorescence intensity was plotted as a function of temperature, generating a sigmoidal curve described by a two-state transition from folded to unfolded protein. […]

The subject of data set [15] is Brd2 wild types. As to the kind of experiment: DSF thermal shift, pooled statement. It counts as binding, human. Particulars: span over Brd2(1) and Brd2(2). Here is the method:
as §5, §6

Data set [16] in a line: Solubility observations. Particulars: observation in words.
The target of data set [17] is T10, Brd2(1)*(Met165Ala) (Homo sapiens, UniProt P25440, M165A). In words: DSF thermal shift. It counts as binding. The arrangement: Plasmids of the eight single BET bromodomain constructs Brd2(1), Brd2(2), Brd3(1), Brd3(2); His6 (N); made in house; host or cells: E. coli BL21(DE3). Particulars: mutant. In outline:
as §4

The target in data set [18] is T10, Brd2(1)*(Met165Ala). As to the kind of experiment: ITC reverse titration of protein into compound. It counts as binding. The arrangement: Plasmids of the eight single BET bromodomain constructs Brd2(1), Brd2(2), Brd3(1), Brd3(2), Brd4(1), Brd4(2), Brdt(1) and Brdt(2); His6 (N); made in house; host or cells: E. coli BL21(DE3). Here is the method: as §1
Reverse titrations were conducted to test the binding of the known ligands and the novel chemical probes to the wild types and the mutants. Experiments were carried out either at 25° C. or 30° C. For strong binders, a concentration of 150-200 μM of the protein was injected into a solution of 15-20 μM compound. […] In cases where the compound was solubilized in dimethyl sulfoxide, DMSO concentration was adjusted to 1% both in the syringe and in the cell.
as §3

2 molecules from patent publication US20170122958A1, “Enzymes Functional Probes” (University of Dundee, priority 2013, published 2017) can be followed below.

Entries after “also recorded” stand apart in the source; their conditions may differ. Read-outs that look alike come from different tables or passages of the source.

T10 sequence (P25440 74-180 M165A limits assumed): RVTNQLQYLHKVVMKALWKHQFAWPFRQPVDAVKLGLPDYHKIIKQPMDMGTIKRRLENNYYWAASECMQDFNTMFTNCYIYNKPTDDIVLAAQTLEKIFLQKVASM
T1 sequence (P25440 74-180 limits assumed): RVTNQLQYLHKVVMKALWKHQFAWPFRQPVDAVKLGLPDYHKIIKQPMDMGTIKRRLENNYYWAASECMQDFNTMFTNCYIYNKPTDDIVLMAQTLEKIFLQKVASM
T5 sequence (P25440 344-453 W370H limits assumed): as the sequence (P25440 344-453 limits assumed) above, with W27H counted along it

Broadly, the Kd is a measure of binding affinity in units of concentration. In the case of `COC(=O)CC1N=C(c2cccc3[nH]ccc23)c2cc(OC)ccc2-n2c(C)nnc21` (stereo not shown) [Compound 18], the “ΔTm Brd2(1)” value in data set [1] was determined as 6.8 ± 0.6 K. Also, the “ΔTm Brd2(1)*(Tryp097-His)” value in data set [2] is 0.6 ± 0.3 K. The “ΔTm Brd2(1)*(Tryp097-Phe)” value in data set [3] is 1.9 ± 0.5 K. Besides, in data set [4], the “ΔTm Brd2(2)” value is on record as 7.7 ± 0.2 K. In addition, in data set [5], the “ΔTm Brd2(2)*(Tryp370-His)” value was 2.7 ± 0.4 K. Moreover, the “ΔTm Brd2(2)*(Tryp370-Phe)” value in [6] amounted to 5.1 ± 0.1 K. Moreover, the Kd in data set [7] (Kd Brd2(2)) is about 90 nM; in [8], about 300 nM.

As for `COc1ccc(OC)c(S(=O)(=O)Nc2ccc3c(c2)CN(C)C(=O)N3)c1` [Compound 51, 2,5-dimethoxy-N-(3-methyl-2-oxo-1,2,3,4-tetrahydroquinazolin-6-yl)benzenesulfonamide], in [1], the “ΔTm Brd2(1)” value was 1.1 ± 0.2 K. For the same molecule, the “ΔTm Brd2(2)” value in [4] came out at 2.1 ± 0.3 K. For the same molecule, the “ΔTm Brd2(1)*(Met165-Leu)” value in [9] stood at 2.9 ± 0.2 K. Moreover, the “ΔTm Brd2(2)*(Met165-Ala)” value in data set [10] is reported as 6.6 ± 0.3 K. In addition, the “ΔTm Brd2(2)*(Met165-Leu)” value in [11] stood at 5.2 ± 0.3 K. The Kd in data set [12] is about 3200 nM; in data set [7] (read-out: Kd Brd2(2)), about 1600 nM; in [13] (ITC 25° C., read-out: Kd methionine to alanine mutation of Brd2(2)), about 260 nM; in data set [18] (ITC 25° C.) it was about 500 nM. Further, the “Selectivity for mutant relative to wild type” value is “six fold selectivity” in [13] (Brd2(2) methionine to alanine mutant vs Brd2(2), ITC Kd) and “six-fold selectivity” in data set [18] (Brd2(1)*(Met165Ala) vs Brd2(1), ITC Kd). The “Fold higher affinity for mutant than wild type” value is given as “twelve fold higher affinity; also recorded: three-fold higher affinity” in data set [13] (Brd2(2)* methionine to alanine mutant vs wild type Brd2(1), ITC Kd) and “three-fold higher affinity; also recorded: twelve fold higher affinity” in [18] (Brd2(1)* methionine to alanine mutant vs wild type Brd2(2), ITC Kd). Besides, the “ΔTm methionine to alanine mutants of Brd2” value in [14] was 4.5-6.6 °C. Further, in data set [15], the “ΔTm wild types of Brd2” value is 1-2 °C. Besides, the Solubility entry in data set [16] was “good solubility”. Further, in data set [17], the “ΔTm Brd2(1)*(Met165-Ala)” value came to 4.6 ± 0.2 K.
